Among the test systems are Staphylococcus aureus; Escherichia coli; Pseudomonas aeruginosa.
Experiment in all cases: ≥ marks a high value that may be exact or a test limit, other limits are often not marked, values filed in µg/mL are converted to µM
Experiment [1] deals with Escherichia coli ATCC 25922.
Experiment [2] has as its system Staphylococcus aureus ATCC 29213.
Experiment [3] has as its system Staphylococcus epidermidis ATCC 12228.

The structures appear in SMILES notation. In brackets after ≈: the same amount, converted by molar mass.

The MIC is the smallest concentration in the dilution series that meets the test's criterion for growth inhibition.

As for `CC[C@H](C)[C@H](NC(=O)[C@H](CCCN=C(N)N)NC(=O)[C@H](CCCCN)NC(=O)[C@@H](N)Cc1ccccc1)C(=O)NCC(=O)N[C@@H](CCC(N)=O)C(=O)N[C@@H](CCCN=C(N)N)C(=O)N[C@H](C(=O)N[C@@H](CCCCN)C(=O)N[C@@H](CC(=O)O)C(=O)N[C@@H](Cc1ccccc1)C(=O)N[C@@H](CC(C)C)C(=O)N[C@@H](CCCN=C(N)N)C(=O)O)[C@@H](C)CC` [FKRIGQRIKDFLR], the MIC in experiment [1] is 5 µM (≈ 8.39 µg/mL); in experiment [2], > 40 µM.

On to `CC[C@H](C)[C@H](NC(=O)[C@H](CCCN=C(N)N)NC(=O)[C@H](CCCCN)NC(=O)[C@@H](N)Cc1ccccc1)C(=O)N[C@H](C(=O)N[C@@H](CCC(N)=O)C(=O)N[C@@H](CCCN=C(N)N)C(=O)N[C@@H](C)C(=O)N[C@@H](CCCCN)C(=O)N[C@@H](CC(=O)O)C(=O)N[C@@H](Cc1ccccc1)C(=O)N[C@@H](CC(C)C)C(=O)N[C@@H](CCCN=C(N)N)C(=O)O)C(C)C` [FKRIVQRAKDFLR], for which the MIC in experiment [1] was 10 µM (≈ 16.8 µg/mL); in experiment [2], > 40 µM.

With `CC[C@H](C)[C@H](NC(=O)[C@H](CCCN=C(N)N)NC(=O)[C@H](CCC(N)=O)NC(=O)[C@@H](NC(=O)[C@H](CC(N)=O)NC(=O)[C@H](CCCN=C(N)N)NC(=O)[C@H](CCCCN)NC(=O)[C@@H](N)Cc1ccccc1)C(C)C)C(=O)N[C@@H](CCCCN)C(=O)N[C@@H](CC(=O)O)C(=O)N[C@@H](Cc1ccccc1)C(=O)N[C@@H](CC(C)C)C(=O)N[C@@H](CCCN=C(N)N)C(=O)O` [FKRNVQRIKDFLR], the MIC in experiment [1] was 20 µM (≈ 34.4 µg/mL); in experiment [2], > 40 µM.

With `CC[C@H](C)[C@H](NC(=O)[C@H](Cc1ccccc1)NC(=O)[C@@H]1CCCN1C(=O)[C@H](CC(C)C)NC(=O)[C@@H](N)Cc1ccccc1)C(=O)N[C@@H](C)C(=O)N[C@@H](CCCN=C(N)N)C(=O)N[C@@H](CC(C)C)C(=O)N[C@@H](C)C(=O)N[C@@H](C)C(=O)N[C@@H](CCCCN)C(=O)N[C@H](C(=O)N[C@@H](Cc1ccccc1)C(=O)N1CCC[C@H]1C(=O)N[C@@H](CO)C(=O)N[C@H](C(=O)N[C@H](C(=O)N[C@H]1CSSC[C@@H](C(=O)O)NC(=O)[C@H](CCCCN)NC(=O)[C@H](CCCCN)NC(=O)[C@H]([C@@H](C)O)NC(=O)[C@H](C(C)C)NC(=O)[C@H](CO)NC1=O)[C@@H](C)CC)[C@@H](C)CC)C(C)C` [FLPFIARLAAKVFPSIICSVTKKC], the results for the MIC (in experiment [1]; in experiment [2]; in the experiment on Staphylococcus aureus) were 1.51 µM (≈ 4 µg/mL), 0.533 µM (≈ 1.41 µg/mL) and 55 µM (≈ 146 µg/mL), respectively.

Regarding `CC[C@H](C)[C@H](NC(=O)CN)C(=O)N[C@@H](CCCCN)C(=O)N[C@@H](CCCCN)C(=O)N[C@@H](Cc1c[nH]c2ccccc12)C(=O)N[C@@H](CC(C)C)C(=O)N[C@@H](Cc1cnc[nH]1)C(=O)N[C@@H](CCCCN)C(=O)N1CCC[C@H]1C(=O)N[C@@H](CCCCN)C(=O)N[C@@H](CCCCN)C(=O)N[C@@H](Cc1ccccc1)C(=O)N1CCC[C@H]1C(=O)N[C@@H](CCCCN)C(=O)N[C@@H](CCCCN)C(=O)N[C@@H](Cc1ccccc1)C(=O)N[C@H](C(=O)N[C@@H](CCCCN)C(=O)N[C@@H](CCCCN)C(=O)N[C@H](C(=O)N[C@@H](CCSC)C(=O)N[C@@H](CC(N)=O)C(=O)N[C@@H](CO)C(N)=O)[C@@H](C)CC)C(C)C` [GIKKWLHKPKKFPKKFVKKIMNS], the values for the MIC in experiment [1] and in experiment [3] were 10 µM (≈ 28.1 µg/mL) and 1.25 µM (≈ 3.51 µg/mL), respectively.

Turning to `CC[C@H](C)[C@H](NC(=O)[C@H](Cc1ccccc1)NC(=O)CNC(=O)[C@H](CCCCN)NC(=O)[C@H](C)NC(=O)[C@H](Cc1ccccc1)NC(=O)[C@H](CCCCN)NC(=O)[C@H](CCCCN)NC(=O)[C@@H](NC(=O)[C@H](CO)NC(=O)[C@H](Cc1cnc[nH]1)NC(=O)[C@H](CC(C)C)NC(=O)[C@@H](NC(=O)[C@H](CCC(=O)O)NC(=O)[C@H](CCCCN)NC(=O)[C@H](CC(C)C)NC(=O)CN)C(C)C)[C@@H](C)O)C(=O)N[C@H](C(=O)NCC(=O)N[C@@H](CC(C)C)C(=O)N[C@H](C(=O)NCC(=O)N[C@@H](CCC(N)=O)C(=O)O)[C@@H](C)O)[C@@H](C)O` [GLKEVLHSTKKFAKGFITGLTGQ], the MIC with Escherichia coli and against Staphylococcus aureus was > 160 µM each time.

In the case of `CC[C@H](C)[C@H](NC(=O)[C@@H](NC(=O)[C@@H](NC(=O)[C@H](Cc1c[nH]c2ccccc12)NC(=O)[C@@H](NC(=O)CN)C(C)C)[C@@H](C)O)[C@@H](C)O)C(=O)N[C@@H](CC(C)C)C(=O)NCC(=O)NCC(=O)N[C@@H](CC(C)C)C(=O)N[C@@H](CCCCN)C(=O)N[C@@H](CCCCN)C(=O)N[C@@H](Cc1ccccc1)C(=O)N[C@@H](C)C(=O)N[C@@H](CCCCN)C(=O)NCC(=O)NCC(=O)N[C@@H](CC(C)C)C(=O)N[C@@H](CCC(=O)O)C(=O)N[C@@H](C)C(=O)N[C@@H](CC(C)C)C(=O)N[C@H](C(=O)N[C@@H](CC(N)=O)C(=O)N1CCC[C@H]1C(=O)N[C@@H](CCCCN)C(=O)O)[C@@H](C)O` [GVWTTILGGLKKFAKGGLEALTNPK], the MIC in the experiment on Escherichia coli amounted to 40 µM (≈ 104 µg/mL); against Staphylococcus aureus it was 80 µM (≈ 208 µg/mL).

With `CC[C@H](C)[C@H](NC(=O)[C@H](C)NC(=O)[C@H](CCCCN)NC(=O)[C@H](C)NC(=O)[C@@H](NC(=O)[C@H](CO)NC(=O)[C@H](CCCCN)NC(=O)[C@@H](NC(=O)[C@H](Cc1c[nH]c2ccccc12)NC(=O)[C@H](CCCCN)NC(=O)[C@H](CC(C)C)NC(=O)[C@@H](NC(=O)[C@H](CO)NC(=O)[C@H](CCCCN)NC(=O)[C@H](C)NC(=O)[C@@H](NC(=O)[C@H](C)NC(=O)[C@@H](N)CCCCN)[C@@H](C)CC)[C@@H](C)CC)[C@@H](C)CC)[C@@H](C)CC)C(N)=O` [KAIAKSILKWIKSIAKAI], the MIC with Escherichia coli turned out to be 5.6 µM (≈ 11.1 µg/mL); with Pseudomonas aeruginosa it was 11.2 µM (≈ 22.2 µg/mL); in the experiment with Staphylococcus aureus, 1.4 µM (≈ 2.77 µg/mL).

As for `CC(=O)N[C@@H](CC(C)C)C(=O)N[C@@H](CCCCN)C(=O)N[C@@H](CCCCN)C(=O)N[C@@H](CC(C)C)C(=O)N1CCC[C@H]1C(=O)N[C@@H](CCCCN)C(=O)N[C@@H](CC(C)C)C(=O)N[C@@H](CO)C(=O)N[C@@H](CCCCN)C(=O)N[C@@H](CCCCN)C(=O)N[C@@H](CC(C)C)C(=O)N[C@@H](CC(C)C)C(=O)N[C@@H](CCCCN)C(=O)N[C@@H](CC(C)C)C(N)=O` [LKKLPKLSKKLLKL], the MIC in experiment [1] came to 3.54 µM (≈ 5.98 µg/mL); in experiment [2], 14.1 µM (≈ 23.9 µg/mL).

`CC[C@H](C)[C@H](NC(=O)[C@@H](NC(=O)[C@H](C)NC(=O)[C@H](CCCN=C(N)N)NC(=O)[C@H](CC(N)=O)NC(=O)[C@H](Cc1ccccc1)NC(=O)[C@H](CO)NC(=O)[C@@H](NC(=O)[C@H](CCCN=C(N)N)NC(=O)[C@H](CCCN=C(N)N)NC(=O)[C@H](CCCN=C(N)N)NC(=O)[C@H](CC(C)C)NC(=O)[C@H](CCC(=O)O)NC(=O)[C@H](CC(N)=O)NC(=O)[C@H](CCC(=O)O)NC(=O)[C@H](CCC(=O)O)NC(=O)[C@H](CC(N)=O)NC(=O)[C@@H](N)CC(N)=O)C(C)C)C(C)C)C(=O)N[C@@H](Cc1cnc[nH]1)C(=O)N[C@@H](CO)C(=O)N[C@@H](CC(C)C)C(=O)N[C@@H](CC(C)C)C(=O)NCC(N)=O` [NNEENELRRRVSFNRAVIHSLLG]: the MIC in experiment [1] and in experiment [2] was > 257 µM each time.

For the compound `CC(C)C[C@H](NC(=O)[C@H](Cc1ccccc1)NC(=O)[C@@H]1CCCN1C(=O)[C@H](Cc1c[nH]c2ccccc12)NC(=O)[C@H](Cc1c[nH]c2ccccc12)NC(=O)[C@H](Cc1c[nH]c2ccccc12)NC(=O)[C@H](C)NC(=O)[C@H](Cc1ccccc1)NC(=O)[C@H](CCCN=C(N)N)NC(=O)[C@H](CCCN=C(N)N)NC(=O)[C@@H](N)C(C)C)C(=O)N[C@@H](CCCN=C(N)N)C(=O)N[C@@H](CCCN=C(N)N)C(N)=O` [VRRFAWWWPFLRR], the figures for the MIC (in experiment [1]; in the experiment on Escherichia coli; in the experiment on Staphylococcus aureus) were 8 µM (≈ 15 µg/mL), 10.7 µM (≈ 20 µg/mL) and 2.13 µM (≈ 4 µg/mL), respectively.
